From patent EP1276722B1, “NAPHTHAMIDINE UROKINASE INHIBITORS” (ABBOTT LABORATORIES, priority 2000, dated 2001)
Where two headings read alike, the source gives them in different places.

Biological target: T1, urokinase enzyme Abbokinase (Homo sapiens, UniProt P00749)
T1 construct: purchased Abbott Laboratories, Abbott Park, IL
Test: Inhibition of urokinase on chromogenic substrate S-2444
Format: biochemical
Method: Four concentrations were chosen, then 5 µl of each were diluted to a total assay volume of 200 µL. […] Several vials were reconstituted as directed on the vial, aliquoted, and stored frozen The enzyme was further diluted in assay buffer and 10 µL was used in the assay. Enzyme concentration in the assay was 2-3 nM. The assay was performed as follows: 175 µL of buffer was pipetted inta the polystyrene plate, and 5 µL solution of a compound of this invention in DMSO was added. The mixture was vortexed, treated with 10 µL of enzyme in buffer, vortexed, treated with 10 µL of substrate in water, and vortexed. […] The Spectromax® calculated the reaction rates which were used to calculate percent inhibition of the compounds of this invention versus the reaction rate of the enzyme in the absence of any inhibitor. The Ki's of the inhibitors were calculated from the percent inhibition and previously established Km.

| SMILES | Ki (read-out: Ki) [nM] | Ki [nM] |
| --- | --- | --- |
| COC(=O)N1CCc2ccc(C=Cc3ccc4cc(C(=N)N)ccc4c3)cc2C1C(C)C (centres unmarked) [Example 17, methyl 7-(2-(6-(amino(imino)methyl)-2-naphthyl)ethenyl)-1-isopropyl-3,4-dihydro-2(1H)-isoquinolinecarboxylate] | 250 |  |
| CC(C)C1NCCc2ccc(C=Cc3ccc4cc(C(=N)N)ccc4c3)cc21 (centres unmarked) [Example 13, 6-(2-(1-isopropyl-1,2,3,4-tetrahydro-7-isoquinolinyl)ethenyl)-2-naphthalenecarboximidamide] | 260 |  |
| CCC1CN(Cc2ccccc2)Cc2ccc(C3CC3c3ccc4cc(C(=N)N)ccc4c3)cc21 (centres unmarked) [Example 49, 6-(2-(2-benzyl-4-ethyl-1,2,3,4-tetrahydro-6-isoquinolinyl)cyclopropyl)-2-naphthalenecarboximidamide] | 278 |  |
| CCC1CN(C(C)=O)Cc2ccc(C3CC3c3ccc4cc(C(=N)N)ccc4c3)cc21 (centres unmarked) [Example 52, 6-(2-(2-acetyl-4-ethyl-1,2,3,4-tetrahydro-6-isoquinolinyl)cyclopropyl)-2-naphthalenecarboximidamide] | 530 |  |
| CC1c2cc(C3CC3c3ccc4cc(C(=N)N)ccc4c3)ccc2CCN1C (centres unmarked) [Example 30, 6-(2-(1,2-dimethyl-1,2,3,4-tetrahydro-7-isoquinolinyl)cyclopropyl)-2-naphthalenecarboximidamide] | 278 |  |
| CC(C)c1nccc2ccc(C3CC3c3ccc4cc(C(=N)N)ccc4c3)cc12 (centres unmarked) [Example 2, 6-(2-(1-isopropyl-7-isoquinolinyl)cyclopropyl)-2-naphthalenecarboximidamide] | 480 |  |
| CC(C)C1c2cc(C3CC3c3ccc4cc(C(=N)N)ccc4c3)ccc2CCN1Cc1ccccc1 (centres unmarked) [Example 19, 6-(2-(2-benzyl-1-isopropyl-1,2,3,4-tetrahydro-7-isoquinolinyl)cyclopropyl)-2-naphthalenecarboximidamide] | 144 |  |
| COC/C=C/c1cc(C2CC2c2ccc3c(c2)C(C(C)C)N(C)CC3)cc2ccc(C(=N)N)cc12 (centres unmarked) [Example 5, 6-(2-(1-isopropyl-2-methyl-1,2,3,4-tetrahydro-7-isoquinolinyl)cyclopropyl)-8-((1E)-3-methoxy-1-propenyl)-2-naphthalenecarboximidamide] |  | 21 |
| N=C(N)c1ccc2cc(C3CC3c3ccc4c(c3)C(c3ccccc3)=NCC4)ccc2c1 (centres unmarked) [Example 10, 6-(2-(1-phenyl-3,4-dihydro-7-isoquinolinyl)cyclopropyl)-2-naphthalenecarboximidamide] | 142 |  |
| COc1ccccc1-c1cc(C2CC2c2ccc3c(c2)C(C(C)C)N(C)CC3)cc2ccc(C(=N)N)cc12 (centres unmarked) [Example 40, 6-(2-(1-isopropyl-2-methyl-1,2,3,4-tetrahydro-7-isoquinolinyl)cyclopropyl)-8-(2-methoxyphenyl)-2-naphthalenecarboximidamide] | 810 |  |
| CC(C)C1c2cc(C3CC3c3ccc4cc(C(=N)N)ccc4c3)ccc2CCN1C(C)C (centres unmarked) [Example 27, 6-(2-(1,2-diisopropyl-1,2,3,4-tetrahydro-7-isoquinolinyl)cyclopropyl)-2-naphthalenecarboximidamide] | 130 |  |
| N=C(N)c1ccc2cc(C3CC3c3ccc4c(c3)CCNC4)ccc2c1 (centres unmarked) [Example 46, 6-(2-(1,2,3,4-tetrahydro-6-isoquinolinyl)cyclopropyl)-2-naphthalenecarboximidamide] | 180 |  |
| CCC1CN=C(C(C)C)c2ccc(C=Cc3ccc4cc(C(=N)N)ccc4c3)cc21 (centres unmarked) [Example 55, 6-(2-(4-ethyl-1-isopropyl-3,4-dihydro-6-isoquinolinyl)ethenyl)-2-naphthalenecarboximidamide] | 255 |  |
| CC(=O)N1CCc2ccc(C3CC3c3ccc4cc(C(=N)N)ccc4c3)cc2C1C(C)C (centres unmarked) [Example 15, 6-(2-(2-acetyl-1-isopropyl-1,2,3,4-tetrahydro-7-isoquinolinyl)cyclopropyl)-2-naphthalenecarboximidamide] | 160 |  |
| CCC1(CC)CN(C)C(C(C)C)c2ccc(C3CC3c3ccc4cc(C(=N)N)ccc4c3)cc21 (centres unmarked) [Example 32, 6-(2-(4,4-diethyl-1-isopropyl-2-methyl-1,2,3,4-tetrahydro-6-isoquinolinyl)cyclopropyl)-2-naphthalenecarboximidamide] | 350 |  |

More lines, in order of falling Ki (read-out: Ki), values ahead:

| Ki (read-out: Ki) [nM] | SMILES | Ki [nM] |
| --- | --- | --- |
| 128 | CC(C)C1=NCCc2ccc(C3CC3c3cc(Br)c4cc(C(=N)N)ccc4c3)cc21 (centres unmarked) [Example 35, 8-bromo-6-(2-(1-isopropyl-3,4-dihydro-7-isoquinolinyl)cyclopropyl)-2-naphthalenecarboximidamide] |  |
| 128 | CCCC1c2cc(C3CC3c3ccc4cc(C(=N)N)ccc4c3)ccc2CCN1C (centres unmarked) [Example 11, 6-(2-(2-methyl-1-propyl-1,2,3,4-tetrahydro-7-isoquinolinyl)cyclopropyl)-2-naphthalenecarboximidamide] |  |
| 123 | CCC1CN(C)Cc2ccc(C3CC3c3ccc4cc(C(=N)N)ccc4c3)cc21 (centres unmarked) [Example 51, 6-(2-(4-ethyl-2-methyl-1,2,3,4-tetrahydro-6-isoquinolinyl)cyclopropyl)-2-naphthalenecarboximidamide] |  |
| 84 | CC(C)C1NCCc2ccc(C3CC3c3ccc4cc(C(=N)N)ccc4c3)cc21 (centres unmarked) [Example 20, 6-(2-(1-isopropyl-1,2,3,4-tetrahydro-7-isoquinolinyl)cyclopropyl)-2-naphthalenecarboximidamide] |  |
| 63 | C=CCN1CCc2ccc(C3CC3c3ccc4cc(C(=N)N)ccc4c3)cc2C1C(C)C (centres unmarked) [Example 25, 6-(2-(2-allyl-1-isopropyl-1,2,3,4-tetrahydro-7-isoquinolinyl)cyclopropyl)-2-naphthalenecarboximidamide] |  |
| 59 | COCC=Cc1cc(C2CC2c2ccc3c(c2)C(C(C)C)=NCC3)cc2ccc(C(=N)N)cc12 (centres unmarked) [Example 4, 6-(2-(1-isopropyl-3,4-dihydro-7-isoquinolinyl)cyclopropyl)-8-(3-methoxy-1-propenyl)-2-naphthalenecarboximidamide] |  |
| 58 | CC(C)C1c2cc(C3CC3c3ccc4cc(C(=N)N)ccc4c3)ccc2CCN1CC1CC1 (centres unmarked) [Example 23, 6-(2-(2-(cyclopropylmethyl)-1-isopropyl-1,2,3,4-tetrahydro-7-isoquinolinyl)cyclopropyl)-2-naphthalenecarboximidamide] |  |
| 54 | CC(C)C1c2cc(C3CC3c3cc(Br)c4cc(C(=N)N)ccc4c3)ccc2CCN1C (centres unmarked) [Example 36, 8-bromo-6-(2-(1-isopropyl-2-methyl-1,2,3,4-tetrahydro-7-isoquinolinyl)cyclopropyl)-2-naphthalenecarboximidamide] |  |
| 50 | N=C(N)c1ccc2cc(C3CC3c3ccc4c(c3)C(C3CCCCC3)=NCC4)ccc2c1 (centres unmarked) [Example 9, 6-(2-(1-cyclohexyl-3,4-dihydro-7-isoquinolinyl)cyclopropyl)-2-naphthalenecarboximidamide] |  |
| 45 | CC(C)C1=NCCc2ccc(C3CC3c3cc(C4CCOC4)c4cc(C(=N)N)ccc4c3)cc21 (centres unmarked) [Example 7, 6-(2-(1-isopropyl-3,4-dihydro-7-isoquinolinyl)cyclopropyl)-8-tetrahydro-3-furanyl-2-naphthalenecarboximidamide] |  |
| 41 | CC(C)C1=NCCc2ccc(C3CC3c3cc(-c4ccoc4)c4cc(C(=N)N)ccc4c3)cc21 (centres unmarked) [Example 1, 8-(3-furyl)-6-(2-(1-isopropyl-3,4-dihydro-7-isoquinolinyl)cyclopropyl)-2-naphthalenecarboximidamide] |  |
| 40 | C=C(C)/C=C/c1cc(C2CC2c2ccc3c(c2)C(C(C)C)N(C)CC3)cc2ccc(C(=N)N)cc12 (centres unmarked) [Example 38, 6-(2-(1-isopropyl-2-methyl-1,2,3,4-tetrahydro-7-isoquinolinyl)cyclopropyl)-8-((1E)-3-methyl-1,3-butadienyl)-2-naphthalenecarboximidamide] |  |
| 37 | CC(C)C1c2cc(C3CC3c3cc(C4CC4)c4cc(C(=N)N)ccc4c3)ccc2CCN1C (centres unmarked) [Example 39, 8-cyclopropyl-6-(2-(1-isopropyl-2-methyl-1,2,3,4-tetrahydro-7-isoquinolinyl)cyclopropyl)-2-naphthalenecarboximidamide] |  |
| 29 | CCC1CNCc2ccc(C3CC3c3ccc4cc(C(=N)N)ccc4c3)cc21 (centres unmarked) [Example 48, 6-(2-(4-ethyl-1,2,3,4-tetrahydro-6-isoquinolinyl)cyclopropyl)-2-naphthalenecarboximidamide] |  |
| 25 | CN1CCc2ccc(C3CC3c3cc(Br)c4cc(C(=N)N)ccc4c3)cc2C1C1CCCCC1 (centres unmarked) [Example 57, 8-bromo-6-(2-(1-cyclohexyl-2-methyl-1,2,3,4-tetrahydro-7-isoquinolinyl)cyclopropyl)-2-naphthalenecarboximidamide] |  |
| 21 | CC(C)/C=C/c1cc(C2CC2c2ccc3c(c2)C(C(C)C)=NCC3)cc2ccc(C(=N)N)cc12 (centres unmarked) [Example 8, 6-(2-(1-isopropyl-3,4-dihydro-7-isoquinolinyl)cyclopropyl)-8-((1E)-3-methyl-1-butenyl)-2-naphthalenecarboximidamide] |  |
| 14 | C=Cc1cc(C2CC2c2ccc3c(c2)C(C(C)C)N(C)CC3)cc2ccc(C(=N)N)cc12 (centres unmarked) [Example 41, 6-(2-(1-isopropyl-2-methyl-1,2,3,4-tetrahydro-7-isoquinolinyl)cyclopropyl)-8-vinyl-2-naphthalenecarboximidamide] |  |
| 10 | CC(C)/C=C/c1cc(C2CC2c2ccc3c(c2)C(C(C)C)N(C)CC3)cc2ccc(C(=N)N)cc12 (centres unmarked) [Example 37, 6-(2-(1-isopropyl-2-methyl-1,2,3,4-tetrahydro-7-isoquinolinyl)cyclopropyl)-8-((1E)-3-methyl-1-butenyl)-2-naphthalenecarboximidamide] |  |
| 10 | CC(C)/C=C/c1cc(C2CC2c2ccc3c(c2)C(C2CCCCC2)N(C)CC3)cc2ccc(C(=N)N)cc12 (centres unmarked) [Example 59, 6-(2-(1-cyclohexyl-2-methyl-1,2,3,4-tetrahydro-7-isoquinolinyl)cyclopropyl)-8-((1E)-3-methyl-1-butenyl)-2-naphthalenecarboximidamide] |  |
| 10 | CC(C)/C=C/c1cc(C2CC2c2ccc3c(c2)C(C2CCCCC2)=NCC3)cc2ccc(C(=N)N)cc12 (centres unmarked) [Example 58, 6-(2-(1-cyclohexyl-3,4-dihydro-7-isoquinolinyl)cyclopropyl)-8-((1E)-3-methyl-1-butenyl)-2-naphthalenecarboximidamide] |  |
